Measurements published in patent publication US8143212B2 (Vicuron Pharmaceuticals Inc., priority 2002, dated 2012).
Where “and” joins values, the source holds several entries; their conditions need not be identical. Identical values can stand only once. Like-named read-outs stand apart in the source and are kept apart here.

Assays:
[1] = clinical; settings: human, in vivo
Text: The study enrolled otherwise healthy subjects with mild, moderate, or severe hepatic impairment (Child-Pugh scores 5 to 6, 7 to 9, and 10 to 15, respectively) and matched control subjects with normal hepatic function.

[2] = Plasma pharmacokinetics in thigh-infected neutropenic mice; settings: intraperitoneal
Procedure: Neutropenia in this and all other studies was produced by injections of cyclophosphamide, 150 mg/kg 4 days prior to study, 100 mg/kg 1 day prior to study and 100 mg/kg every 48 h after start of infection until end of study. Neutrophil counts remained less than 100/mm^3 for the duration of study. Doses of 2.5, 5, 10, 20; 40, and 80 mg/kg were studied. Drug was administered by intraperitoneal injection of 0.2 ml volume. Blood was removed from groups of three mice by retroorbital aspiration into heparinized capillary tubes at 0.5, 1, 2, 4, 6, 24, 48, 72, and 96 hours after dosing. […] AUC was calculated by the trapezoidal rule from mean concentrations.

[3] = tested on: hepatic cytochrome P450 isoenzymes
[4] = tested on: human α-glycoprotein; settings: pH 7.4
Procedure: Integrated heat effects, after correction for heats of dilution, were analyzed by non-linear regression using a simple single-site binding model with the standard Microcal ORIGIN software package. Raw data (μcal/sec) for each injection were integrated to give the total heat effect per addition, then divided by amount of injectant to give kcal/mole of injectant. The same integration was applied for control dilution effects, and this was subtracted from the actual titration data. This provided a differential of the binding curve in which the extent of binding is proportional to the total heat liberated (or absorbed). This was then analyzed by non-linear regression methods in terms of various standard binding models. The simplest model assumes simple non-competitive binding equilibrium, and gives three parameters:

[5] = clinical; settings: human, in vivo; for AUC(0-inf): AUC0-inf; for clearance: CL; for Vd: Vss
Procedure: (§2) The peak concentrations (Cmax) were obtained directly from the observed data. The area under the plasma concentration-time curve (AUC) were calculated using the linear trapezoidal rule.
(§3) Clinical Study VER001-13 examined subjects with mild and moderate renal impairment and Clinical Study VER001-1 examined subjects with severe renal impairment and subjects with end-stage renal disease (ESRD). Matched control subjects were enrolled in all studies. […] Subjects with ESRD were dependent on dialysis through the course of the study (3 times weekly).

[6] = tested on: Gram-positive pathogen; assay: Phase II SSTI trial: microbiological response; format: in vivo, human; settings: for Success Rate by Pathogen: Microbiologically ITT Population at FU; for eradication/presumed eradication rate, all organisms: FU assessment
Procedure: (§1) There were 62 patients randomized into the study; all received at least one dose of study medication. Four study populations were evaluated for safety and efficacy and were defined as follows: The intent-to-treat (ITT) population included all patients who received at least one dose of study drug (all randomized study subjects).
Microbiological outcome, a secondary efficacy variable, was assessed in the subpopulation of patients who had microbiologically documented SSTI (i.e., at least one identified baseline pathogen). A microbiologic response was assessed for each Gram-positive pathogen identified at baseline (i.e., eradication, presumed eradication, persistence, presumed persistence). For patients for whom follow-up cultures were not performed, the microbiologic responses for baseline pathogens were presumed on the basis of the clinical response. Microbiologic response by patient at the EOT and FU visits was graded as success (i.e., all Gram-positive organisms eradicated or presumed eradicated) or failure (i.e., at least one Gram-positive organism persisted or presumed to have persisted, multiple pathogens with partial eradication). At both the EOT and FU visits, colonization and superinfection were assessed. At the FU visit, a patient's bacteriological response could also include recurrence.

[7] = tested on: S haemolyticus; assay: MIC, microbiological activity (Table 3); format: cell-based; settings: L 602 S haemolyticus clin. isolate; read-out: MIC
[8] = human, in vivo
Procedure: as §2, §3

[9] = tested on: C albicans; assay: MIC, microbiological activity (Table 3); format: cell-based; settings: L 145 C albicans SKF2270; read-out: MIC
[10] = tested on: skin and soft tissue infections (SSTI); assay: Phase II SSTI trial: clinical response; format: in vivo, human
Procedure: This randomized, controlled study evaluated the safety and efficacy of two dose regimens of dalbavancin.
as §1
The effectiveness of the three treatment regimens was determined by assessing the patients' clinical response and the documented or presumed microbiological responses. The primary efficacy endpoint was clinical response at the follow-up visit for the clinically evaluable population. Clinical response, for both EOT and FU visits, was categorized as success (cure or improvement) or failure (including indeterminate results). Patients classified as successes must not have received additional systemic antibacterial treatment for their infection. Failure was defined as persistence of one or more local or systemic signs and symptoms of SSTI such that treatment with new or additional systemic antibacterial agents was required for the SSTI.

CN[C@H]1C(=O)N[C@@H]2Cc3ccc(cc3)Oc3cc4cc(c3O[C@@H]3O[C@H](C(=O)O)[C@@H](O)[C@H](O)[C@H]3NC(=O)CCCCCCCCC(C)C)Oc3ccc(cc3Cl)[C@@H](O)[C@@H]3NC(=O)[C@H](NC(=O)[C@@H]4NC(=O)[C@@H](NC2=O)c2cc(cc(O)c2Cl)Oc2cc1ccc2O)c1ccc(O)c(c1)-c1c(O[C@H]2O[C@H](CO)[C@@H](O)[C@H](O)[C@@H]2O)cc(O)cc1[C@@H](C(=O)NCCCN(C)C)NC3=O [Dalbavancin]
clearance ([1]; CL): 0.777 mL/min | Vd ([1]; Vss): 18.1 L | time of peak levels [2]: 4 to 6 h | metabolism in vitro [3]: not metabolized | substrate, inhibitor, or inducer of hepatic cytochrome P450 isoenzymes [3]: not a substrate, inhibitor, or inducer | Calculated percent Binding ([4]; 1 μM): 73.0% | Calculated percent Binding ([4]; 10 μM): 68.2% | Calculated percent Binding ([4]; 100 μM): 26.2% | Calculated percent Binding ([4]; 165 μM): 16.9% | Calculated percent Binding ([4]; 250 μM): 11.4% | Calculated percent Binding ([4]; 500 μM): 5.9% | AUC ([5]; 500 mg, AUC): 24400 µg·h/mL | AUC ([5]; 500 mg, AUC0-day7): 6080 µg·h/mL | AUC ([5]; 500 mg, AUC0-day14): 10400 µg·h/mL | AUC(0-inf) ([5]; 500 mg): 24100 µg·h/mL | AUC ([5]; 500 mg, AUC7): 6860 µg·h/mL | AUC ([5]; 500 mg, AUC14): 11000 µg·h/mL | clearance ([5]; 500 mg): 0.37 mL/min | Cmax ([5]; 500 mg): 137 µg/mL | Vd ([5]; 500 mg): 13.2 L | AUC ([5]; 1000 mg, AUC): 24500 µg·h/mL | AUC ([5]; 1000 mg, AUC0-day7): 9710 µg·h/mL | AUC ([5]; 1000 mg, AUC0-day14): 15300 µg·h/mL | AUC(0-inf) ([5]; 1000 mg): 27000 µg·h/mL | AUC ([5]; 1000 mg, AUC7): 13400 µg·h/mL | AUC ([5]; 1000 mg, AUC 14): ~22000 µg·h/mL | AUC ([5]; 1000 mg, AUC14): 17700 µg·h/mL | AUC ([5]; 1000 mg, AUC42): 23100 µg·h/mL | clearance ([5]; 1000 mg): 0.627 mL/min | Cmax ([5]; 1000 mg): 340 µg/mL | Vd ([5]; 1000 mg): 16.5 L | AUC ([5]; 1120 mg, AUC): 25800 µg·h/mL | AUC ([5]; 1120 mg, AUC0-day7): 13600 µg·h/mL | AUC ([5]; 1120 mg, AUC0-day14): 20200 µg·h/mL | AUC(0-inf) ([5]; 1120 mg): 25800 µg·h/mL | AUC ([5]; 1120 mg, AUC7): 13600 µg·h/mL | AUC ([5]; 1120 mg, AUC14): 20200 µg·h/mL | clearance ([5]; 1120 mg): 0.728 mL/min | Cmax ([5]; 1120 mg): 325 µg/mL | Vd ([5]; 1120 mg): 8.49 L | S. aureus eradication rate ([6]; FU, single-dose): 50% | S. aureus eradication rate ([6]; FU, two-dose): 90% | Microbiologic Success Rate ([6]; MITT population, EOT, Single-dose (1100 mg)): 5/14 (35.7) % | Microbiologic Success Rate ([6]; MITT population, EOT, Two-dose (1000/500 mg)): 10/13 (76.9) % | Microbiologic Success Rate ([6]; MITT population, FU, Single-dose (1100 mg)): 3/14 (21.4) % | Microbiologic Success Rate ([6]; MITT population, FU, Two-dose (1000/500 mg)): 9/13 (69.2) % | MRSA eradication rate ([6]; MITT population, single-dose): 50% | MRSA eradication rate ([6]; MITT population, two-dose): 80% | Success Rate by Pathogen ([6]; Methicillin-resistant S. aureus, Single-dose (1100 mg)): 3/6 (50%) | Success Rate by Pathogen ([6]; Methicillin-resistant S. aureus, Two-dose (1000/500 mg)): 4/5 (80%) | Microbiologic Success Rate ([6]; Microbiologically evaluable population, EOT, Single-dose (1100 mg)): 5/13 (38.5) % | Microbiologic Success Rate ([6]; Microbiologically evaluable population, EOT, Two-dose (1000/500 mg)): 8/11 (72.7) % | Microbiologic Success Rate ([6]; Microbiologically evaluable population, FU, Single-dose (1100 mg)): 3/11 (27.3) % | Microbiologic Success Rate ([6]; Microbiologically evaluable population, FU, Two-dose (1000/500 mg)): 8/11 (72.7) % | Success Rate by Pathogen ([6]; Total organisms, Two-dose (1000/500 mg)): 14/16 (87.5%)^ | microbiologic success rates ([6]; both visits (EOT and FU), single dose): < 40% | Microbiologic Success Rate ([6]; microbiologically-evaluable population, EOT, single-dose): 38.5% | Microbiologic Success Rate ([6]; microbiologically-evaluable population, EOT, two-dose): 72.7% | eradication/presumed eradication rate, all organisms ([6]; microbiologically-evaluable population, single-dose): 58% | eradication/presumed eradication rate, all organisms ([6]; microbiologically-evaluable population, two-dose): 92% | Microbiologic Success Rate ([6]; microbiologically-evaluable population, FU, single-dose): 27.3% | Microbiologic Success Rate ([6]; microbiologically-evaluable population, FU, two-dose): 72.7% | MIC [7]: > 32 µg/mL | tolerability [8]: well tolerated | Cmax ([8]; 1120 mg): 325 µg/mL | MIC [9]: > 32 µg/mL | Clinical Success Rate ([10]; Clinically evaluable at EOT, Single-dose (1100 mg)): 13/16 (61.5) % | Clinical Success Rate ([10]; Clinically evaluable at EOT, Two-dose (1000/500 mg)): 16/17 (94.1) % | Clinical Success Rate ([10]; Clinically evaluable at FU, Single-dose (1100 mg)): 8/13 (61.5) % | Clinical Success Rate ([10]; Clinically evaluable at FU, Two-dose (1000/500 mg)): 16/17 (94.1) % | Clinical Success Rate ([10]; ITT at EOT, Single-dose (1100 mg)): 15/20 (75.0) % | Clinical Success Rate ([10]; ITT at EOT, Two-dose (1000/500 mg)): 19/21 (90.5) % | Clinical Success Rate ([10]; ITT at FU, Single-dose (1100 mg)): 12/20 (60.0) % | Clinical Success Rate ([10]; ITT at FU, Two-dose (1000/500 mg)): 19/21 (90.5) % | Clinical Success Rate ([10]; MITT at EOT, Single-dose (1100 mg)): 10/14 (71.4) % | Clinical Success Rate ([10]; MITT at EOT, Two-dose (1000/500 mg)): 12/13 (92.3) % | Clinical Success Rate ([10]; MITT at FU, Single-dose (1100 mg)): 7/14 (50.0) % | Clinical Success Rate ([10]; MITT at FU, Two-dose (1000/500 mg)): 12/13 (92.3) % | Clinical Success Rate ([10]; MITT population with MRSA, FU assessment, single-dose): 50% | Clinical Success Rate ([10]; MITT population with MRSA, FU assessment, two-dose): 80% | Clinical Success Rate ([10]; Microbiologically evaluable at EOT, Single-dose (1100 mg)): 10/13 (76.9) % | Clinical Success Rate ([10]; Microbiologically evaluable at EOT, Two-dose (1000/500 mg)): 10/11 (90.9) % | Clinical Success Rate ([10]; Microbiologically evaluable at FU, Single-dose (1100 mg)): 6/11 (54.5) % | Clinical Success Rate ([10]; Microbiologically evaluable at FU, Two-dose (1000/500 mg)): 10/11 (90.9) % | Clinical Success Rate ([10]; clinically-evaluable population, FU assessment, single-dose: 1100 mg IV day 1): 61.5% | Clinical Success Rate ([10]; clinically-evaluable population, FU assessment, two-dose: 1 g IV day 1 + 500 mg IV day 8): 94.1% and 94%
